Test results: patent publication US20250057808A1, “COMPOSITION COMPRISING BETA LACTAM FOR TREATING ALCOHOL DEPENDENCE AND ALCOHOL ASSOCIATED DISEASES OR CONDITIONS” (Temple University of the Commonwealth System of Higher …, priority 2023, published 2025)
“Also recorded” adds a separate entry of the source.

Columns and labels:
[1] = test system: PPAR-γ; experiment: Western blot PPAR-γ expression in liver; format: in vivo, P rats; conditions: MC-100093 50 mg/kg or ceftriaxone 200 mg/kg i.p. 5 days; between all groups
Method: Western Blot assay was performed to measure changes in the expression of GLT-1, xCT, mGluR1, mGluR5, PPAR-α, PPARγ, GAPDH and β-tubulin in the NAc-core and NAc-shell as described in previous publications. A lysis buffer containing protease and phosphatase inhibitors was used to generate a homogenate of liver, Nac-core, and Nac-shell samples. The amount of protein was quantified using a detergent compatible protein assay (Bio-Rad, Hercules, CA, USA) for each sample. Samples were mixed with laemmli dye and loaded with equal amounts on polyacrylamide gels (10%), which separated the proteins using electrophoresis. After that, polyvinylidene difluoride (PVDF) membranes were used to transfer the proteins electrophoretically from the gels. Membranes were incubated in 5% free-fat milk in Tris-buffered saline with Tween-20 (TBST) for 30-60 minutes at room temperature. Membranes were then incubated with appropriate primary antibodies overnight at 4° C.: rabbit anti-GLT-1 (1:5000, Abcam, ab41621), rabbit anti-xCT (1:2000, Abcam, ab175186), rabbit anti-mGluR1 (1:1000, Abcam, ab82211), rabbit anti-mGluR5 (1:1000, Abcam, ab76316), rabbit anti-PPAR-α (1:1000, Abcam, ab24509), and rabbit anti-PPARγ (1:1000, Abcam, ab209350). […]

[2] = Ethanol drinking paradigm, three-bottle choice (MC-100093 50 mg/kg vs ceftriaxone 200 mg/kg); format: in vivo, P rats
Method: P rats were received from Indiana University School of Medicine (Indianapolis, IN, USA), and were housed in a 21° C. on a 12/12 h light/dark cycle-maintained room where they had free access to water and food. All experimental procedures were approved by the Institutional Animal Care and Use Committee (IACUC) of The University of Toledo, in accordance with the guidelines governing the use of animals in research of the National Institutes of Health as described in the Guidefor the Care and Use of Laboratory Animals.
We used an ethanol drinking paradigm as described previously by Alhaddad, et al. (2014). Briefly, animals started the experimental drinking procedure at age of 90 days. The animals had five weeks of exposure to continuous three-bottle choice drinking, 0%, 15% and 30%, v/v ethanol in water, available concurrently. Daily measurement of ethanol intake was performed (g of ethanol intake/kg of body weight/day). We measured the baseline ethanol drinking by average the intake during the last three weeks. Three groups of P rats (n=8-9/group) exposed to the five weeks ethanol exposure. At week 6, rats in each group received daily intraperitoneal injection of either MC-100093 at dose of 50 mg/kg (Ethanol-MC group), Ceftriaxone at dose of 200 mg/kg (Ethanol-CEF group, which also serves as positive control), or equivolume of saline vehicle (Ethanol group) for five days. This paradigm results in pharmacologically relevant blood alcohol concentration (50-200 mg %). Following the criteria for the development of ethanol dependence, rats whose average ethanol intake <4 g/kg/day were excluded from the study. Beside the ethanol exposed groups, another group of P rats (n=8) exposed to only water and food throughout the exposure procedures (control group).
All statistical analyses were conducted with Graphpad Prism software, with p-values of 0.05 or less being statistically significant. We performed a two-way (mixed model) ANOVA followed by Bonferroni multiple comparison post-hoc test to analyze 24 h ethanol consumption, 24 h water consumption, and daily body weight. For the Western blot and oil red O staining analysis, we performed one-way ANOVA with Newman-Keuls as a post hoc multiple comparison test to measure differences between groups as a percentage (relative to control values).

[3] = test system: GLT-1; conditions: cited from earlier work
[4] = test system: mGluR1; experiment: Western blot mGluR1 expression in NAc-core and NAc-shell; format: in vivo, P rats; conditions: MC-100093 50 mg/kg or ceftriaxone 200 mg/kg i.p. 5 days; among all groups
Method: We used micro-punch procedure to dissect the subregions of the NAc such as NAc-core and NAc-shell as well as the subregions of prefrontal cortex such as infralimbic (IL) and prelimbic (PL) from the brain on day 6 after the last injection day. P rats were removed from the cage and rapidly euthanized by CO2 inhalation followed by rapid decapitation with a guillotine. Brains were isolated and immediately frozen on dry ice and stored at −80° C. The stereotaxic coordinates provided by Paxinos and colleague's rat brain stereotactic atlas was used to isolate NAc-core and NAc-shell using a cryostat apparatus (−20° C.), which then kept at −80° C. for later western blot analyses.
Western Blot assay was performed to measure changes in the expression of GLT-1, xCT, mGluR1, mGluR5, PPAR-α, PPARγ, GAPDH and β-tubulin in the NAc-core and NAc-shell as described in previous publications. A lysis buffer containing protease and phosphatase inhibitors was used to generate a homogenate of liver, Nac-core, and Nac-shell samples. The amount of protein was quantified using a detergent compatible protein assay (Bio-Rad, Hercules, CA, USA) for each sample. Samples were mixed with laemmli dye and loaded with equal amounts on polyacrylamide gels (10%), which separated the proteins using electrophoresis. After that, polyvinylidene difluoride (PVDF) membranes were used to transfer the proteins electrophoretically from the gels. Membranes were incubated in 5% free-fat milk in Tris-buffered saline with Tween-20 (TBST) for 30-60 minutes at room temperature. Membranes were then incubated with appropriate primary antibodies overnight at 4° C.: rabbit anti-GLT-1 (1:5000, Abcam, ab41621), rabbit anti-xCT (1:2000, Abcam, ab175186), rabbit anti-mGluR1 (1:1000, Abcam, ab82211), rabbit anti-mGluR5 (1:1000, Abcam, ab76316), rabbit anti-PPAR-α (1:1000, Abcam, ab24509), and rabbit anti-PPARγ (1:1000, Abcam, ab209350). Mouse anti-β-tubulin (1:1000; BioLegend) was used as a loading control antibody for the brain samples and rabbit anti-GAPDH (1:5000; cell signaling) was used as a loading control antibody for the liver samples. Membranes were washed five times on the next day with TBST followed by incubation with appropriate secondary antibody (1:5000) for 90 minutes at room temperature. Chemiluminescent reagents (Super Signal West Pico, Pierce Inc.) were used to detect the proteins using a GeneSys imaging system to develop the digitized blot images. Water-control group data were represented as 100% and all other values were expressed relative to control group to detect changes in the expression of the protein of interest in the brain and liver samples.
All statistical analyses were conducted with Graphpad Prism software, with p-values of 0.05 or less being statistically significant. […]

With `C[C@@H](O)[C@H]1C(=O)N[C@@H]1[C@@H](C)C(=O)N1CCN(C)CC1` [MC-100093] the “Protein expression of PPAR-γ in the liver” value [1] was “not changed significantly”, the “Body weight (grams)” value ([2]; MC-100093 50 mg/kg i.p. or ceftriaxone 200 mg/kg i.p. 5 days) was “Neither MC-100093 (50 mg/kg, i.p.) nor Ceftriaxone (200 mg/kg, i.p.) treatment has significant effect; also recorded: no significant effects” and the “Water intake (mL/day)” value ([2]; MC-100093 50 mg/kg i.p. or ceftriaxone 200 mg/kg i.p. 5 days, vs Ethanol-Saline group (MC-100093: at day 5 only)) was “significant increase in water consumption”. For the same molecule, the “Ethanol consumption (g/kg of average body weight/24 hr)” value ([2]; P rats after 5 wk ethanol, MC-100093 50 mg/kg i.p. or ceftriaxone 200 mg/kg i.p. daily 5 days, vs Ethanol-Saline group) was “significant decrease in ethanol consumption from day 1 through day 5; also recorded: significantly reduced ethanol consumption from day 2 through day 5; also recorded: attenuated ethanol drinking behavior; also recorded: attenuated moderately ethanol intake as compared to ceftriaxone”, the GLT-1 upregulatory properties [3] was “potent GLT-1 upregulator; also recorded: enhanced GLT-1 upregulatory properties compared to ceftriaxone” and the “Protein expression of mGluR1 in the NAc-core” value [4] was “non-significant difference; also recorded: no significant difference”. For the same molecule, the “Protein expression of mGluR1 in the NAc-shell” value [4] was “non-significant differences; also recorded: no significant difference”.
